Reference: ChEMBL document CHEMBL2074281, “Drug excretion mediated by a new prototype of polyspecific transporter” (Nature, 1994)

T1: Solute carrier family 22 member 1 (Rattus norvegicus, UniProt Q63089)
T1 sequence (Q63089 whole entry): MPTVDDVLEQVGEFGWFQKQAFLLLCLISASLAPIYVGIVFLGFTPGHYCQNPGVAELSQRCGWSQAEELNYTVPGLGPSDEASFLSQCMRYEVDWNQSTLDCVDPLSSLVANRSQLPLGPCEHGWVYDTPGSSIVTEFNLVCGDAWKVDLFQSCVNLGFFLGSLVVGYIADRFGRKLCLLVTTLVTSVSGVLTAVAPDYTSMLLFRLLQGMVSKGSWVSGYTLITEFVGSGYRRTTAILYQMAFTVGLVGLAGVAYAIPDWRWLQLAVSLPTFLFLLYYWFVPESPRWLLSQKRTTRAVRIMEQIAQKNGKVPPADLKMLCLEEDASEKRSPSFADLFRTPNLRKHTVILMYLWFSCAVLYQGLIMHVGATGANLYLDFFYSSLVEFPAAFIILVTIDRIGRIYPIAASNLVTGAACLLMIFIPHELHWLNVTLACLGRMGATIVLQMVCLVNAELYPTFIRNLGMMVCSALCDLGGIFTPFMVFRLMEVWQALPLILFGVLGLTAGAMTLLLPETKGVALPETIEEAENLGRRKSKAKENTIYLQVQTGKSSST


molecular target: T1, Solute carrier family 22 member 1; test: TP_TRANSPORTER: inhibition of TEA uptake in Xenopus laevis oocytes; format: functional, cell-based, Oocyte

Molecule	Ki [µM]
C[C@]12C[C@H](O)[C@H]3[C@@H](CCC4=CC(=O)CC[C@@]43C)[C@@H]1CC[C@@H]2C(=O)CO [CORTICOSTERONE]	> 10
CC[n+]1c(CC2C=C(C)N=C(c3ccccc3)N2C)ccc2ccccc21 (stereo unspecified) [Cyanine-863]	0.13
COc1cc(C(O)CNC(C)C)ccc1O (stereo unspecified) [METIPRENALINE]	43
CNC(=O)c1cccnc1 [NICOTINYL METHYLAMIDE]	1000
COC(=O)[C@H]1[C@H]2C[C@@H]3c4[nH]c5cc(OC)ccc5c4CCN3C[C@H]2C[C@@H](OC(=O)c2cc(OC)c(OC)c(OC)c2)[C@@H]1OC [RESERPINE]	> 20

substrate: CC[N+](CC)(CC)CC; test: cells, lysate or membranes named

Molecule	Km [µM]
Solute carrier family 22 member 1 (Rattus norvegicus) (protein) MPTVDDVLEQVGEFGWFQKQAFLLLCLISASLAPIYVGIVFLGFTPGHYCQNPGVAELSQRCGWSQAEELNYTVPGLGPSDEASFLSQCMRYEVDWNQSTLDCVDPLSSLVANRSQLPLGPCEHGWVYDTPGSSIVTEFNLVCGDAWKVDLFQSCVNLGFFLGSLVVGYIADRFGRKLCLLVTTLVTSVSGVLTAVAPDYTSMLLFRLLQGMVSKGSWVSGYTLITEFVGSGYRRTTAILYQMAFTVGLVGLAGVAYAIPDWRWLQLAVSLPTFLFLLYYWFVPESPRWLLSQKRTTRAVRIMEQIAQKNGKVPPADLKMLCLEEDASEKRSPSFADLFRTPNLRKHTVILMYLWFSCAVLYQGLIMHVGATGANLYLDFFYSSLVEFPAAFIILVTIDRIGRIYPIAASNLVTGAACLLMIFIPHELHWLNVTLACLGRMGATIVLQMVCLVNAELYPTFIRNLGMMVCSALCDLGGIFTPFMVFRLMEVWQALPLILFGVLGLTAGAMTLLLPETKGVALPETIEEAENLGRRKSKAKENTIYLQVQTGKSSST	95
